Assay results: patent US9707244B2, “Compositions and methods for treating conditions that affect epidermis” (Gencia Corporation, priority 2013, dated 2017)

Tested on: EpiDerm Full Thickness 400 (EFT-400) tissues
Test: Mattek full-thickness skin model (EFT-400) skin thickness
Assay type: cell-based
Conditions: 14 days; average over the three corticosteroids (100 nM dexamethasone, 50 nM betamethasone, 10 nM Clobetasol); p<0.001
Experimental: Following the protocol of Schoepe, we used the FTSM model to determine if co-treatment with Mitocreatine would reduce the loss in skin thickness produced by glucocorticoids.
2.5 mL of EpiDerm Full Thickness 400 (EFT-400) medium was dispensed into each well of the four 6-well plates aseptically in the tissue culture hood. The plates containing the EFT-400 tissues were removed from their plastic packaging and transferred using sterile forceps into the 6-well plates containing the 2.5 mL of EFT-400 media, making sure that no agarose adheres to the insert and that the media makes full contact with the underside of the tissue insert membrane (no air bubbles under the insert). The apical surface of the tissue should remain exposed to air (no media should be added to the side of the insert).
The tissues were equilibrated overnight at 37° C., 5% CO2. Treatment conditions are listed below in Table 5.
Day 2-13: The plates were visually examined and the media containing the test compounds was replenished each day.
Day 15: The inserts were dislodged from the support and the tissue carefully removed from the support with a scalpel.
The tissues were placed in 50 mL conical tubes containing 10% phosphate buffered formalin and sent for sectioning, histological processing and H&E staining Slides were visualized using a Leica Stereoscope equipped with a digital camera. Images were acquired and measured using ExoLabs software. Data was tabulated in Excel and the results were analyzed.

Compound | reduction in skin thickness (FTSM) [%]
C[C@H]1C[C@H]2[C@@H]3CCC4=CC(=O)C=C[C@]4(C)[C@@]3(F)[C@@H](O)C[C@]2(C)[C@@]1(O)C(=O)CCl [Clobetasol] | 26
C[C@@H]1C[C@H]2[C@@H]3CCC4=CC(=O)C=C[C@]4(C)[C@@]3(F)[C@@H](O)C[C@]2(C)[C@@]1(O)C(=O)CO [dexamethasone] | 26
C[C@H]1C[C@H]2[C@@H]3CCC4=CC(=O)C=C[C@]4(C)[C@@]3(F)[C@@H](O)C[C@]2(C)[C@@]1(O)C(=O)CO [betamethasone] | 26
